According to patent US20260374773A1, “MULTI-CYCLIC IRAK AND FLT3 INHIBITING COMPOUNDS AND USES THEREOF” (CHILDREN'S HOSPITAL MEDICAL CENTER, priority 2022, published 2026):

What follows are molecules tested on MOLM14 (D835Y) cells (assay: Combination drug screening with venetoclax, Cell Titer Glo, MOLM14 (D835Y)). Conditions: compound 0-0.1 μM, venetoclax 0-2 μM, 10 × 10, 48 h, negative = synergy.
Type: cell-based
Design: key: relative excess HSA score; more negative = greater synergy
Method: Combination drug therapy has the potential to produce enhanced effects with lower side effects not obtained using either agent alone, or beyond the additive effect of the different concentrations of the two different agents. To determine whether enhanced effects are observed in different drug combinations, combination drug screening was performed as previously described (Mathews-Griner, L. A. et al., Proc. Nat. Acad. Sci., 2014, 111:2349-2354; Lin, G. L. et al., Sci. Trans. Med., 2019, 11: eaaw0064). Briefly, 10 nL of compounds were acoustically dispensed into 1536-well white polystyrene tissue culture-treated plates with an Echo 550 acoustic liquid handler (Labcyte). Cells were then added to compound-containing plates at a density of 500-cells/well in 5 μL of medium. A 10-point custom concentration range was used for all listed drugs in a 10×10 matrix. Plates were incubated for 48 hours at standard incubator conditions covered by a stainless steel gasketed lid to prevent evaporation. 48 hours post compound addition, 3 μL of Cell Titer Glo (Promega) were added to each well and plates were incubated at room temperature for 15 minutes with the stainless-steel lid in place. Luminescence readings were taken using a Viewlux imager (PerkinElmer) with a 2 second exposure time per plate.
Each compound was studied in combination with venetoclax at two concentration ranges of compound and venetoclax, respectively (for a total of 4 combination dose-response curves). The dose combinations that yielded the optimal synergy score, measured as excess HSA, which are reported in Tables 23 and 24 for the FLT3 mutant cell line MOLM14 (D835Y) and the FLT3 WT cell line THP1, respectively.
Table 23 provides combination outcomes for representative compounds with venetoclax in the Cell Titer Glo assay in MOLM14 (D835Y) cells (a FLT3 mutant cell line) at 48 hours. The table provides relative excess HSA values for compounds of the disclosure used in combination with venetoclax compared to gilteritinib hemifumarate used in combination with venetoclax. A negative excess HSA score illustrates that the drug combination is better than either drug alone, wherein greater synergy is observed at larger negative values of the excess HSA score.
Excess HSA is a measure of synergy vs. additivity or antagonism, wherein a negative excess HSA value is indicative of synergy. More information on excess HSA scores can be found in Vlot, Anna H. C. et al., Drug Discovery Today, 2019, 24(12):2286-2298. […] However, different methodologies may yield different numerical scores, and different definitions of what constitutes a deviation from mere additivity vs true drug synergy. The large negative excess HSA values provided in Tables 23 and 24 illustrate that multiple members of this structural class synergize with venetoclax. The degree to which combination therapy has to potential to produce enhanced effects with lower side effects not obtained using either agent alone, or beyond the additive effect of the different concentrations of the two different agents depends on the nature of the drugs used in the combination, and the specific doses/concentrations at which they are ultimately used in the therapeutic regimen. A negative excess HSA score illustrates that the drug combination is better than either drug alone (at the concentrations being studied). […] However, the utility in certain drug combinations vs. others should not be distinguished based on cutoffs between excess HSA scores, because the score itself is only a relative indicator that is completely dependent on experimental design and is not an absolute number. Furthermore, the concept of what constitutes clinically meaningful drug synergy is something that is still being debated, not only between pharmacologists and physicians, but amongst pharmacologists themselves. […]

Row | Structure (SMILES) | Excess HSA
1 | COc1cn2ncc(-c3nc(N[C@H]4CNC[C@@H]4F)c(F)cc3F)c2nc1C1CC1 [Compound 24, 6-(5-cyclopropyl-6-methoxypyrazolo[1,5-a]pyrimidin-3-yl)-3,5-difluoro-N-((3S,4S)-4-fluoropyrrolidin-3-yl)pyridin-2-amine] | −1472

Same assay, conditions: compound 0-0.1 μM, venetoclax 0-20 μM, 10 × 10, 48 h, negative = synergy

Row | Structure (SMILES) | Excess HSA
2 | COc1cn2ncc(-c3nc(N[C@@H]4CCCNC4)ccc3F)c2nc1C1CC1 [Compound 2, (R)-6-(5-cyclopropyl-6-methoxypyrazolo[1,5-a]pyrimidin-3-yl)-5-fluoro-N-(piperidin-3-yl)pyridin-2-amine] | −1843
3 | COc1cn2ncc(-c3cncc(N[C@H]4CNCC[C@@H]4F)n3)c2nc1C1CC1 [Compound 12a, 6-(5-cyclopropyl-6-methoxypyrazolo[1,5-a]pyrimidin-3-yl)-N-((3S,4S)-4-fluoropiperidin-3-yl)pyrazin-2-amine] | −1697
4 | COc1cn2ncc(-c3nc(N[C@@H]4CCCNC4)ncc3F)c2nc1C1CC1 [Compound 14a, (R)-4-(5-cyclopropyl-6-methoxypyrazolo[1,5-a]pyrimidin-3-yl)-5-fluoro-N-(piperidin-3-yl)pyrimidin-2-amine] | −559.2
5 | COc1cn2ncc(-c3nc(N[C@H]4CNCC[C@@H]4F)ncc3F)c2nc1C(C)(C)O [Compound 6a, 2-(3-(5-fluoro-2-(((3S,4S)-4-fluoropiperidin-3-yl)amino)pyrimidin-4-yl)-6-methoxypyrazolo[1,5-a]pyrimidin-5-yl)propan-2-ol] | −1057
6 | COc1cn2ncc(-c3nc(N[C@H]4CNCC[C@@H]4F)c(F)cc3F)c2nc1C1CC1 [Compound 22, 6-(5-cyclopropyl-6-methoxypyrazolo[1,5-a]pyrimidin-3-yl)-3,5-difluoro-N-((3S,4S)-4-fluoropiperidin-3-yl)pyridin-2-amine] | −992.2
7 | COc1cn2ncc(-c3ccnc(N[C@H]4CNCC[C@@H]4F)n3)c2nc1C1CC1 [Compound 7a, 4-(5-cyclopropyl-6-methoxypyrazolo[1,5-a]pyrimidin-3-yl)-N-((3S,4S)-4-fluoropiperidin-3-yl)pyrimidin-2-amine] | −1364
8 | COc1cn2ncc(-c3nc(N[C@H]4CNCC[C@@H]4F)ncc3F)c2nc1C1CC1 [Compound 15a, 4-(5-cyclopropyl-6-methoxypyrazolo[1,5-a]pyrimidin-3-yl)-5-fluoro-N-((3S,4S)-4-fluoropiperidin-3-yl)pyrimidin-2-amine] | −831

Same assay, conditions: compound 0-0.2 μM, venetoclax 0-20 μM, 10 × 10, 48 h, negative = synergy

Row | Structure (SMILES) | Excess HSA
9 | COc1cn2ncc(-c3ccnc(N[C@H]4CNCC[C@@H]4F)n3)c2nc1C(C)(C)O [Compound 3a, 2-(3-(2-(((3S,4S)-4-fluoropiperidin-3-yl)amino)pyrimidin-4-yl)-6-methoxypyrazolo[1,5-a]pyrimidin-5-yl)propan-2-ol] | −1621
